Assay results taken from patent EP2951180B1, “2,6,7,8 SUBSTITUTED PURINES AS HDM2 INHIBITORS” (Merck Sharp & Dohme Corp., priority 2013, dated 2014).
Where two headings read alike, the source gives them in different places.

Target: T1, HDM2 (Homo sapiens, UniProt Q00987)
T1 construct: Thioredoxin (N); made in house; host or cells: E. coli strain BL21(DE3)Rosetta
Test: HDM2 FRET assay (inhibition of binding of FITC labeled p53-pocket peptide to HDM2)
Conditions: read-out: FRET IC50
Description: Methods: An HDM2 FRET assay was developed to assess the compounds' inhibitory activity towards binding of p53 protein. […] Protein was purified using Ni-affinity chromatography, followed by size exclusion chromatography using Superdex 75 26/60 column. […] The HDM2 assay buffer contained 1x Phosphate Buffered Saline (Invitrogen, Cat#14190), 0.01% BSA (Jackson ImmunoResearch, Cat# 001-000-162), 0.01% Tween-20. In the 1X assay buffer recombinant HDM2 protein, peptide and Lumi4-Tb Cryptate-conjugate mouse anti-6xHis antibody (cisbio, Cat#Tb61HISTLB) were added and transferred to ProxiPlate PLUS (PerkinElmer, Cat#6008269), containing compounds so that final DMSO concentration is 0.1% . Final concentrations of reagents in the assay wells are 0.5 nM HDM2, 0.25nM anti HIS (Tb label) antibody and 3nM peptide. […] Ratio of em520/em495 was used to calculate %inhibition and to obtain IC50 with 4-parameter logistic equation.
IC50 DETERMINATIONS: Dose-response curves were plotted from the inhibition data, from 10 point serial dilutions of inhibitory compounds. Concentration of compound was plotted against em520/Cem495 ratio signal. To generate IC50 values, the dose-response curves were fitted to a standard sigmoidal curve and IC50 values were derived by nonlinear regression analysis.

[1] = 0.5 nM HDM2 (residues 17 to 125), 3nM peptide, two hour incubation at room temperature

T1 sequence (Q00987 17-125): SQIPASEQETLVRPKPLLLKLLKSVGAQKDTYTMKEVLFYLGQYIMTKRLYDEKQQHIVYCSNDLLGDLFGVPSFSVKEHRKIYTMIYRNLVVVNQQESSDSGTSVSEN

SMILES	IC50 (Table 23) [nM]	IC50 (Table 11) [nM]	other results
CC(C)c1ccnc(-c2nc3nc(C(=O)O)nc(OC(C)C4CCC4)c3n2Cc2ccc(C(F)(F)F)c(F)c2)c1 (racemic) [Example 17.7, 6-(1-cyclobutylethoxy)-7-[3-fluoro-4-(trifluoromethyl)benzyl]-8-[4-(propan-2-yl)pyridin-2-yl]-7H-purine-2-carboxylic acid]			IC50 [1]: 15 nM
CC(C)c1ccnc(-c2nc3nc(C(=O)O)nc(OC(C)C4CCC4)c3n2C[C@H]2CC[C@H](C)CC2)c1 (mixture of isomers) [Example 17.8, 6-(1-cyclobutylethoxy)-7-[(trans-4-methylcyclohexyl)methyl]-8-[4-(propan-2-yl)pyridin-2-yl]-7H-purine-2-carboxylic acid]			IC50 [1]: 10.3 nM
C[C@H]1CC[C@H](Cn2c(C(O)C3CCOCC3)nc3nc(-c4n[nH]c(=O)o4)nc(-c4cccc(Cl)c4)c32)CC1 (mixture of isomers) [Example 23.1, 5-{6-(3-chlorophenyl)-8-[hydroxy(tetrahydro-2H-pyran-4-yl)methyl]-7-[(trans-4-methylcyclohexyl)methyl] -7H-purin-2-yl}-1,3,4-oxadiazol-2(3H)-one]	67.3		
C[C@H]1CC[C@H](Cn2c(C(O)C3CCOCC3)nc3nc(-c4noc(=O)[nH]4)nc(-c4cccc(Cl)c4)c32)CC1 (mixture of isomers) [Example 23.2, 3-{6-(3-chlorophenyl)-8-[hydroxy(tetrahydro-2H-pyran-4-yl)methyl]-7-[(trans-4-methylcyclohexyl)methyl]-7H-purin-2-yl}-1,2,4-oxadiazol-5(4H)-one]	51.5		
CC(O)(c1nc2nc(-c3noc(=O)[nH]3)nc(-c3cccc(Cl)c3)c2n1C[C@H]1CC[C@H](C)CC1)C1CCOCC1 (mixture of isomers) [Example 23.4, 3-{6-(3-chlorophenyl)-8-[1-hydroxy-1-(tetrahydro-2H-pyran-4-yl)ethyl]-7-[(trans-4-methylcyclohexyl)methyl]-7H-purin-2-yl}-1,2,4-oxadiazol-5(4H)-one]	19.2		
COC(c1nc2nc(-c3noc(=O)[nH]3)nc(-c3cccc(Cl)c3)c2n1C[C@H]1CC[C@H](C)CC1)C1CCOCC1 (mixture of isomers) [Example 23.12, 3-{6-(3-chlorophenyl)-8-[methoxy(tetrahydro-2H-pyran-4-yl)methyl]-7-[(trans-4-methylcyclohexyl)methyl] -7H-purin-2-yl}-1,2,4-oxadiazol-5(4H)-one]	13.3		
C[C@H]1CC[C@H](Cn2c(C(O)C3CCOCC3)nc3nc(-c4noc(=O)[nH]4)nc(-c4cncc(Cl)c4)c32)CC1 (mixture of isomers) [Example 23.17, 3-{6-(5-chloropyridin-3-yl)-8-[hydroxy(tetrahydro-2H-pyran-4-yl)methyl]-7-[(trans-4-methylcyclohexyl)methyl] -7H-purin-2-yl}-1,2,4-oxadiazol-5(4H)-one]	67.3		
COC(c1ccccc1F)c1nc2nc(-c3n[nH]c(=O)o3)nc(-c3cncc(Cl)c3)c2n1C[C@H]1CC[C@H](C)CC1 (mixture of isomers) [Example 23.103, 5-{6-(5-chloropyridin-3-yl)-8-[(2-fluorophenyl)(methoxy)methyl]-7-[(trans-4-methylcyclohexyl)methyl]-7H-purin-2-yl}-1,3,4-oxadiazol-2(3H)-one]	1.7		
COC(c1ccccc1C#N)c1nc2nc(-c3noc(=O)[nH]3)nc(-c3cncc(Cl)c3)c2n1C[C@H]1CC[C@H](C)CC1 (mixture of isomers) [Example 23.109, 2-{[6-(5-chloropyridin-3-yl)-7-[(trans-4-methylcyclohexyl)methyl]-2-(5-oxo-4,5-dihydro-1,2,4-oxadiazol-3-yl)-7H-purin-8-yl](methoxy)methyl}benzonitrile]	0.707		
CC1CN(C)CCN1c1nc2nc(-c3noc(=O)[nH]3)nc(-c3cccc(Cl)c3)c2n1C[C@H]1CC[C@H](C)CC1 (relative stereo) [Example 16.53, 3-{6-(3-chlorophenyl)-8-(2,4-dimethylpiperazin-1-yl)-7-[(trans-4-methylcyclohexyl)methyl]-7H-purin-2-yl}-1,2,4-oxadiazol-5(4H)-one]			IC50 [1]: 42.8 nM
C[C@H]1CC[C@H](Cn2c(N3CCC4OCCC43)nc3nc(-c4noc(=O)[nH]4)nc(-c4cccc(Cl)c4)c32)CC1 (relative stereo) [Example 16.150, 3-{6-(3-chlorophenyl)-8-(hexahydro-4H-furo[3,2-b]pyrrol-4-yl)-7-[(trans-4-methylcyclohexyl)methyl]-7H-purin-2-yl}-1,2,4-oxadiazol-5(4H)-one]			IC50 [1]: 45 nM
COC1(c2nc3nc(-c4noc(=O)[nH]4)nc(-c4cncc(Cl)c4)c3n2C[C@H]2CC[C@H](C)CC2)CCCCC1C (relative stereo) [Example 23.63, 3-{6-(5-chloropyridin-3-yl)-8-(1-methoxy-2-methylcyclohexyl)-7-[(trans-4-methylcyclohexyl)methyl] -7H-purin-2-yl}-1,2,4-oxadiazol-5(4H)-one]	7.64		
COC1(c2nc3nc(-c4n[nH]c(=O)o4)nc(-c4cncc(Cl)c4)c3n2C[C@H]2CC[C@H](C)CC2)CCCCC1C (relative stereo) [Example 23.64, 5-{6-(5-chloropyridin-3-yl)-8-(1-methoxy-2-methylcyclohexyl)-7-[(trans-4-methylcyclohexyl)methyl] -7H-purin-2-yl}-1,3,4-oxadiazol-2(3H)-one]	8.8		
CC1CCCCC1(F)c1nc2nc(-c3noc(=O)[nH]3)nc(-c3cncc(Cl)c3)c2n1C[C@H]1CC[C@H](C)CC1 (relative stereo) [Example 23.65, 3-{6-(5-chloropyridin-3-yl)-8-(1-fluoro-2-methylcyclohexyl)-7-[(trans-4-methylcyclohexyl)methyl] -7H-purin-2-yl}-1,2,4-oxadiazol-5(4H)-one]	6.63		
CC(c1nc2nc(-c3noc(=O)[nH]3)nc(-c3cccc(Cl)c3)c2n1C[C@H]1CC[C@H](C)CC1)C1CCOCC1 (relative stereo) [Example 24.3, 3-{6-(3-chlorophenyl)-7-[(trans-4-methylcyclohexyl)methyl]-8-[1-(tetrahydro-2H-pyran-4-yl)ethyl]-7H-purin-2-yl}-1,2,4-oxadiazol-5(4H)-one]			IC50 [1]: 14.2 nM
C[C@@H](Nc1nc(C(=O)O)nc2nc(N3CCCC3c3ccccc3)n(Cc3ccc(C(F)(F)F)cc3)c12)C1CCC1 (single isomer, unassigned) [Example 9.64]			IC50 (Table 9): 10.2 nM
C[C@@H](Nc1nc(C(=O)O)nc2nc(N3CCCC3c3ccccc3)n(Cc3ccc(C(F)(F)F)cc3)c12)C1CCC1 (single isomer, unassigned) [Example 9.65]			IC50 (Table 9): 11.4 nM
C[C@@H](Nc1nc(-c2noc(=O)[nH]2)nc2nc(N3CCCCC3c3cccnc3)n(C[C@H]3CC[C@H](C)CC3)c12)C1CCC1 (single isomer, unassigned) [Example 11.49]		2.43	
C[C@@H](Nc1nc(-c2noc(=O)[nH]2)nc2nc(N3CCCCC3c3cccnc3)n(C[C@H]3CC[C@H](C)CC3)c12)C1CCC1 (single isomer, unassigned) [Example 11.50]		14.3	
C[C@@H]1CCCCN1c1nc2nc(-c3nc(=O)o[nH]3)nc(N[C@H](C)C3CCC3)c2n1C[C@H]1CC[C@H](C)CC1 (single isomer, unassigned) [Example 11.58]		5.37	
C[C@@H](Nc1nc(-c2nc(=O)o[nH]2)nc2nc(N3CCCC[C@@H]3C)n(C[C@H]3CC[C@H](C)CC3)c12)C1CCC1 (single isomer, unassigned) [Example 11.59]		13.5	
CC1CCN(c2nc3nc(-c4noc(=O)[nH]4)nc(N[C@H](C)C4CCC4)c3n2C[C@H]2CC[C@H](C)CC2)C(c2ccccc2)C1 (single isomer, unassigned) [Example 11.68]		2.04	
CC1CCN(c2nc3nc(-c4noc(=O)[nH]4)nc(N[C@H](C)C4CCC4)c3n2C[C@H]2CC[C@H](C)CC2)C(c2ccccc2)C1 (single isomer, unassigned) [Example 11.69]		17.3	
C[C@@H](Nc1nc(-c2noc(=O)[nH]2)nc2nc(N3CCOCC3c3ccccc3Cl)n(C[C@H]3CC[C@H](C)CC3)c12)C1CCC1 (single isomer, unassigned) [Example 11.117]		3.77	
C[C@@H](Nc1nc(-c2noc(=O)[nH]2)nc2nc(N3CCOCC3c3ccccc3Cl)n(C[C@H]3CC[C@H](C)CC3)c12)C1CCC1 (single isomer, unassigned) [Example 11.118]		0.568	
C[C@@H](Nc1nc(-c2noc(=O)[nH]2)nc2nc(NC(CO)c3ccccc3)n(C[C@H]3CC[C@H](C)CC3)c12)C1CCC1 (single isomer, unassigned) [Example 11.121]		40.1	
C[C@@H](Nc1nc(-c2noc(=O)[nH]2)nc2nc(NC(CO)c3ccccc3)n(C[C@H]3CC[C@H](C)CC3)c12)C1CCC1 (single isomer, unassigned) [Example 11.122]		4.17	
C[C@@H](Nc1nc(-c2n[nH]c(=O)o2)nc2nc(N3CCOC4CCCCC43)n(C[C@H]3CC[C@H](C)CC3)c12)C1CCC1 (single isomer, unassigned) [Example 11.125]		7.49	
C[C@@H](Nc1nc(-c2n[nH]c(=O)o2)nc2nc(N3CCOC4CCCCC43)n(C[C@H]3CC[C@H](C)CC3)c12)C1CCC1 (single isomer, unassigned) [Example 11.126]		1.46	
